The record followed here is patent US9139532B2, “Pyrazolyl guanidine F1F0-atpase inhibitors and therapeutic uses thereof” (Lycera Corporation, priority 2010, dated 2015).

For experiment [1], the target named is T1, F1F0-ATPase (Bos taurus, UniProt P13621).
T1 construct: from tissue
Briefly: Inhibition of F1F0-ATPase activity in synthesizing ATP. Format: biochemical. As to conditions: inhibition of ATP synthesis by F1F0-ATPase; read-out: ATP Syn IC50.

Experiment [2] relates to Ramos cells. Briefly: Cytotoxicity in Ramos cells. Particulars: cytotoxicity in Ramos cells, read-out: Ramos Cell EC50. In kind it is cell-based.

Like-named read-outs stand apart in the source and are kept apart here.

On to `Cc1ccccc1CN/C(=N/C(=O)c1cccc(F)c1)Nc1cc(-c2ccc(F)cc2)[nH]n1` [Compound A-399], for which the IC50 – broadly, the midpoint of a concentration-inhibition curve – in experiment [1] was < 10 µM. The EC50 (usually the midpoint of the concentration-response curve) in experiment [2] was < 10 µM.

As for `COc1cccc(CNC(=NC(=O)c2ccc(Cl)cc2)Nc2cc(-c3ccc(F)cc3)n[nH]2)c1` [Compound A-400], the IC50 in experiment [1] is < 10 µM. The EC50 in experiment [2] (Homo sapiens) was < 10 µM.

Turning to `Cc1ccccc1CNC(=NC(=O)c1ccc(Cl)cc1)Nc1cc(-c2ccc(F)cc2)n[nH]1` [Compound A-401], in experiment [1], the IC50 is < 10 µM. The EC50 in experiment [2] (Homo sapiens) is < 10 µM.

For the molecule `CCOc1cccc(C(=O)/N=C(\Nc2cc(-c3ccc(F)cc3)[nH]n2)NC(C)(C)C)c1` [Compound A-402], the IC50 in experiment [1] was < 10 µM. The EC50 in experiment [2] was < 10 µM.

For the molecule `CC(C)(C)NC(=NC(=O)c1cc(F)c(F)c(F)c1)Nc1cc(-c2ccc(F)cc2)n[nH]1` [Compound A-403], the IC50 in experiment [1] was < 10 µM. Further, the EC50 in experiment [2] (Homo sapiens) was < 10 µM.

On to `Cc1cc(C(=O)N=C(Nc2cc(C(F)(F)F)[nH]n2)NC(C)CO)ccc1F` (stereo not shown) [Compound A-404], for which the IC50 in experiment [1] was < 10 µM. In experiment [2], the EC50 was > 10 µM.

With `Cc1cc(C(=O)/N=C(\Nc2cc(-c3ccc(F)cc3)[nH]n2)N[C@@H](C)CO)ccc1F` [Compound A-405], the IC50 in experiment [1] is < 10 µM. For the same molecule, the EC50 in experiment [2] was < 10 µM.

Turning to `O=C(/N=C(/NCC1CCOC1)Nc1cc(C(F)(F)F)[nH]n1)c1ccc(F)cc1` (stereo not shown) [Compound A-406], in experiment [1], the IC50 was < 10 µM. In experiment [2], the EC50 was > 10 µM.

Regarding `COCCCN/C(=N/C(=O)c1ccc(F)cc1)Nc1cc(C(F)(F)F)[nH]n1` [Compound A-409], the IC50 in experiment [1] was < 10 µM. Also, the EC50 in experiment [2] was > 10 µM.

Turning to `CCOCCN/C(=N/C(=O)c1ccc(F)cc1)Nc1cc(C(F)(F)F)[nH]n1` [Compound A-410], in experiment [1], the IC50 is < 10 µM. For the same molecule, the EC50 in experiment [2] is > 10 µM.

`O=C(/N=C(/NCc1nccs1)Nc1cc(C(F)(F)F)[nH]n1)c1ccc(F)cc1` [Compound A-411]: in experiment [1], the IC50 was < 10 µM. Also, the EC50 in experiment [2] is > 10 µM.

`CC1(C)OCC(CN/C(=N/C(=O)c2ccc(F)cc2)Nc2cc(C(F)(F)F)[nH]n2)O1` (stereo not shown) [Compound A-412]: the IC50 in experiment [1] is < 10 µM. In experiment [2], the EC50 is > 10 µM.

With `O=C(/N=C(/NCC1CCCO1)Nc1cc(C(F)(F)F)[nH]n1)c1ccc(F)cc1` (stereo not shown) [Compound A-413], the IC50 in experiment [1] was < 10 µM. The EC50 in experiment [2] is > 10 µM.

In the case of `Cc1ccc(CN/C(=N/C(=O)c2ccc(F)cc2)Nc2cc(C(F)(F)F)[nH]n2)o1` [Compound A-414], the IC50 in experiment [1] was < 10 µM. For the same molecule, in experiment [2], the EC50 was < 10 µM.

For `O=C(/N=C(\Nc1cc(C(F)(F)F)[nH]n1)NC1(CO)CCCC1)c1ccc(F)cc1` [Compound A-415], the IC50 in experiment [1] was < 10 µM. In addition, in experiment [2], the EC50 is > 10 µM.

Regarding `Cc1csc(CN/C(=N/C(=O)c2ccc(F)cc2)Nc2cc(C(F)(F)F)[nH]n2)n1` [Compound A-416], in experiment [1], the IC50 is < 10 µM. Also, the EC50 in experiment [2] is > 10 µM.

Regarding `Cc1cc(-c2cc(N/C(=N\C(=O)c3ccc(C(F)(F)F)cc3)NC(C)(C)C)n[nH]2)ccc1F` [Compound A-417], the half-inhibitory concentration (IC50) in experiment [1] was < 10 µM. In experiment [2], the EC50 was < 10 µM.

Consider `Cc1cc(-c2cc(N/C(=N\C(=O)c3ccc(F)cc3)NC(C)(C)C)n[nH]2)ccc1F` [Compound A-418], for which, in experiment [1], the half-maximal inhibitory concentration (IC50) was < 10 µM. Besides, the concentration for a half-maximal effect (EC50) in experiment [2] was < 10 µM.

In the case of `O=C(N=C(Nc1cc(F)cc(Cl)c1)Nc1cc(-c2cc(F)cc(F)c2)[nH]n1)c1ccc(F)c(F)c1` [Compound A-419], the IC50 in experiment [1] is < 10 µM. Further, in experiment [2] (Homo sapiens), the EC50 is < 10 µM.

Consider `CC(C)(C)N/C(=N/C(=O)c1ccc(F)c(F)c1)Nc1cc(-c2cc(F)cc(F)c2)[nH]n1` [Compound A-420], for which, in experiment [1], the IC50 was < 10 µM. For the same molecule, the EC50 in experiment [2] was < 10 µM.

On to `O=C(/N=C(\Nc1cc(-c2cccc(C(F)(F)F)c2)[nH]n1)NC1CCCC1)c1ccc(C(F)(F)F)cc1` [Compound A-421], for which, in experiment [1], the IC50 was < 10 µM. In experiment [2], the EC50 is < 10 µM.

As for `O=C(N=C(Nc1cc(F)cc(Cl)c1)Nc1cc(-c2cccc(C(F)(F)F)c2)[nH]n1)c1ccc(F)c(F)c1` [Compound A-422], in experiment [1], the IC50 was < 10 µM. For the same molecule, the EC50 in experiment [2] (Homo sapiens) is < 10 µM.

On to `CC(C)(C)N/C(=N/C(=O)c1ccc(F)c(F)c1)Nc1cc(-c2cccc(C(F)(F)F)c2)[nH]n1` [Compound A-423], for which the IC50 in experiment [1] is < 10 µM. The EC50 in experiment [2] was < 10 µM.

Regarding `COc1ccccc1CN/C(=N/C(=O)c1ccc(C(F)(F)F)cc1)Nc1cc(C(F)(F)F)[nH]n1` [Compound A-424], the IC50 in experiment [1] is < 10 µM. Further, the EC50 in experiment [2] was < 10 µM.

In the case of `COc1ccc(CN/C(=N/C(=O)c2ccccc2)Nc2cc(C(F)(F)F)[nH]n2)cc1` [Compound A-425], the IC50 in experiment [1] is < 10 µM. For the same molecule, the EC50 in experiment [2] was < 10 µM.

Take `Cc1ccc(-c2cc(NC(=NC(=O)c3ccc(C(F)(F)F)cc3)NC(C)(C)C)[nH]n2)cc1` [Compound A-426]: in experiment [1], the IC50 was < 10 µM. In addition, the EC50 in experiment [2] (Homo sapiens) is > 10 µM.

On to `Cc1ccc(-c2cc(N/C(=N\C(=O)c3ccc(F)c(F)c3)NC(C)(C)C)[nH]n2)cc1` [Compound A-427], for which the IC50 in experiment [1] is < 10 µM. Also, in experiment [2], the EC50 is < 10 µM.

In the case of `Cc1ccc(-c2cc(N/C(=N\C(=O)c3ccc(F)c(F)c3)Nc3cc(F)cc(Cl)c3)[nH]n2)cc1` [Compound A-428], the IC50 in experiment [1] is < 10 µM. Besides, the EC50 in experiment [2] was > 10 µM.

As for `CC(C)CN/C(=N/C(=O)c1cccc(S(C)(=O)=O)c1)Nc1cc(-c2ccc(F)cc2)n[nH]1` [Compound A-429], the IC50 in experiment [1] is < 10 µM. In experiment [2], the EC50 is < 10 µM.

On to `CCC(C)N/C(=N/C(=O)c1cccc(S(C)(=O)=O)c1)Nc1cc(-c2ccc(F)cc2)n[nH]1` (stereo not shown) [Compound A-430], for which the IC50 in experiment [1] was < 10 µM. In addition, in experiment [2], the EC50 was < 10 µM.

In the case of `CCc1ccc(-c2cc(N/C(=N\C(=O)c3ccc(F)c(F)c3)NC(C)(C)C)[nH]n2)cc1` [Compound A-431], in experiment [1], the IC50 was < 10 µM. For the same molecule, the EC50 in experiment [2] was < 10 µM.

On to `CCc1ccc(-c2cc(N/C(=N\C(=O)c3ccc(C(F)(F)F)cc3)NC(C)(C)C)[nH]n2)cc1` [Compound A-432], for which, in experiment [1], the IC50 is < 10 µM. In experiment [2], the EC50 was > 10 µM.

With `Cc1ccc(-c2cc(N/C(=N\C(=O)c3ccc(F)c(F)c3)NC(C)(C)C)[nH]n2)cc1F` [Compound A-433], in experiment [1], the IC50 was < 10 µM. The 50% effective concentration (EC50) in experiment [2] was < 10 µM.

In the case of `Cc1ccc(-c2cc(NC(=NC(=O)c3ccc(C(F)(F)F)cc3)NC(C)(C)C)[nH]n2)cc1F` [Compound A-434], the IC50 in experiment [1] is < 10 µM. Also, the EC50 in experiment [2] (Homo sapiens) is > 10 µM.

With `CC(C)(C)NC(=NC(=O)c1ccc(F)c(F)c1)Nc1cc(-c2ccccc2)n[nH]1` [Compound A-435], the IC50 in experiment [1] is < 10 µM. In addition, the EC50 in experiment [2] (Homo sapiens) is < 10 µM.

`O=C(/N=C(/Nc1cc(F)cc(Cl)c1)Nc1cc(-c2ccccc2)n[nH]1)c1ccc(F)c(F)c1` [Compound A-436]: the IC50 in experiment [1] was < 10 µM. For the same molecule, the EC50 in experiment [2] is > 10 µM.

For the molecule `CC(C)(C)N/C(=N/C(=O)c1cccc(C(F)(F)F)c1)Nc1cc(-c2ccc(Cl)cc2)n[nH]1` [Compound A-437], in experiment [1], the IC50 was < 10 µM. The half-maximal effective concentration (EC50) in experiment [2] is < 10 µM.

Consider `CC(C)(C)N/C(=N/C(=O)c1cccc(F)c1)Nc1cc(-c2cccc(Cl)c2)n[nH]1` [Compound A-438], for which the IC50 in experiment [1] is < 10 µM. Also, in experiment [2], the EC50 is < 10 µM.
